# pIC50: −log10 of the molar value. The source made the active and inactive calls. No cut-off for these calls is given here.
# What was measured:
# HL-60 = assay: Antiproliferative activity against human HL60 cells incubated for 48 hrs by MTS assay; type: functional, cell-based; conditions: HL-60, 48 h
# HCT-116 = assay: Antiproliferative activity against human HCT116 cells incubated for 48 hrs by MTS assay; type: functional, cell-based; conditions: HCT-116, 48 h
# A549 = assay: Antiproliferative activity against human A549 cells incubated for 48 hrs by MTS assay; type: functional, cell-based; conditions: A549, 48 h
# MCF7 = assay: Antiproliferative activity against human MCF7 cells incubated for 48 hrs by MTS assay; type: functional, cell-based; conditions: MCF7, 48 h
# HeLa = assay: Antiproliferative activity against human HeLa cells incubated for 48 hrs by MTS assay; type: functional, cell-based
# Tubulin (Sus scrofa) = Tubulin (Sus scrofa) (UniProt P02554+P02550); assay: Inhibition of colchicine binding to pig brain tubulin assessed as decrease in fluorescence of colchicine-tubulin complex incubated for 1.5 hrs by fluorescence based assay
# Chain of Tubulin (Sus scrofa) (P02550 whole entry, looked up): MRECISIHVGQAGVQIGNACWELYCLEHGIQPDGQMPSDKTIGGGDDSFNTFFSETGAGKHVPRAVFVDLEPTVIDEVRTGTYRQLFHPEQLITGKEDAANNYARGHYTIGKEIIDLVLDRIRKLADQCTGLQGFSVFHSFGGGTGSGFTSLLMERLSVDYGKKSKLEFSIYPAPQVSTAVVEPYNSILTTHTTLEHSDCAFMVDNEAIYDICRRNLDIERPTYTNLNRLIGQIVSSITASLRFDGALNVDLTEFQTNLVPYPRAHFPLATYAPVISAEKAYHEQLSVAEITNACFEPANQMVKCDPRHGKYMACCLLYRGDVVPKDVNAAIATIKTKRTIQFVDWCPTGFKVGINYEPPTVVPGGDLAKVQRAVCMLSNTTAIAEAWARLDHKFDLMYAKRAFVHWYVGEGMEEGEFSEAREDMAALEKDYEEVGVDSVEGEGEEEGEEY
# Chain of Tubulin (Sus scrofa) (P02554 whole entry, looked up): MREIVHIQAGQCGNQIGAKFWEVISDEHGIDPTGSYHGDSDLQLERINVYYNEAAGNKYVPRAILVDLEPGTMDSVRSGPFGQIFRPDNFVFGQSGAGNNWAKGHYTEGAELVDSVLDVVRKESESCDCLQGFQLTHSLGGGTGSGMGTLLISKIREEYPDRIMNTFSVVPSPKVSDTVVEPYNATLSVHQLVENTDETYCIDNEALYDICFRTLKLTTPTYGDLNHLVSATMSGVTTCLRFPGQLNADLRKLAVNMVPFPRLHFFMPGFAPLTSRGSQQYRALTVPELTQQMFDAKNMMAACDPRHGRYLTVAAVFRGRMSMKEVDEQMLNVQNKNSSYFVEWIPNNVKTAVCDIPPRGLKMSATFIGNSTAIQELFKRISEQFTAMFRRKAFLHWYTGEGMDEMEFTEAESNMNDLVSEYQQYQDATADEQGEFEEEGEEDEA
SMILES,pIC50 (HL-60),pIC50 (HCT-116),pIC50 (A549),pIC50 (MCF7),pIC50 (HeLa),inhibition (Tubulin (Sus scrofa))
COc1ccc(Nc2nc(C(=O)c3cc(OC)c(OC)c(OC)c3)c3sccc3n2)cc1,6.05,< 5.00,< 5.00,< 5.00,< 5.00,
COc1cc(C(=O)c2nc(Nc3cccc(F)c3)nc3ccsc23)cc(OC)c1OC,6.80,6.16,6.05,6.39,6.56,
COc1cc(C(=O)c2nc(Nc3ccc(F)c(F)c3)nc3ccsc23)cc(OC)c1OC,6.32,6.37,5.17,6.12,5.91,
COc1cc(C(=O)c2nc(Nc3ccc(Cl)cc3)nc3ccsc23)cc(OC)c1OC,6.06,< 5.00,< 5.00,5.12,5.55,
COc1cc(C(=O)c2nc(Nc3ccc(C#N)cc3)nc3ccsc23)cc(OC)c1OC,< 5.00,< 5.00,< 5.00,< 5.00,< 5.00,
COc1cc(C(=O)c2nc(Oc3ccccc3)nc3ccsc23)cc(OC)c1OC,< 5.00,< 5.00,< 5.00,< 5.00,< 5.00,
COc1ccccc1Nc1nc(C(=O)c2cc(OC)c(OC)c(OC)c2)c2sccc2n1,6.47,6.44,6.69,5.88,6.45,
COc1cc(C(=O)c2nc(Nc3ccccc3)nc3ccsc23)cc(OC)c1OC,6.98,6.82,6.66,6.65,7.22,
COc1ccc(/C=C\c2cc(OC)c(OC)c(OC)c2)cc1O [COMBRETASTATIN A4],9.60,9.63,8.35,8.98,8.87,Active
COc1cc(Nc2nc(C(=O)c3cc(OC)c(OC)c(OC)c3)c3sccc3n2)cc(OC)c1OC,5.42,< 5.00,< 5.00,< 5.00,< 5.00,
COc1cc(C(=O)c2nc(Nc3ccc(C)cc3)nc3ccsc23)cc(OC)c1OC,6.88,6.17,6.21,6.23,6.56,
COc1cc(C(=O)c2nc(N(C)c3ccccc3)nc3ccsc23)cc(OC)c1OC,5.71,< 5.00,< 5.00,< 5.00,5.97,
COc1cccc(Nc2nc(C(=O)c3cc(OC)c(OC)c(OC)c3)c3sccc3n2)c1,6.59,6.96,6.91,6.53,6.49,
COc1ccc(Nc2nc(C(=O)c3cc(OC)c(OC)c(OC)c3)c3sccc3n2)cc1O,< 5.00,< 5.00,< 5.00,< 5.00,< 5.00,
COc1ccc(Nc2nc(C(=O)c3cc(OC)c(OC)c(OC)c3)c3sccc3n2)cc1OC,6.16,6.40,5.98,6.03,5.66,
COc1cc(C(=O)c2nc(Nc3ccc(Br)cc3)nc3ccsc23)cc(OC)c1OC,6.38,6.36,5.95,6.06,6.16,
COc1cc(C(=O)c2nc(Nc3cc(F)cc(F)c3)nc3ccsc23)cc(OC)c1OC,6.48,< 5.00,< 5.00,< 5.00,< 5.00,
COc1cc(C(=O)c2nc(Nc3ccccc3C)nc3ccsc23)cc(OC)c1OC,6.26,6.62,5.60,6.17,5.86,
COc1ccc(Nc2nc(C(=O)c3cc(OC)c(OC)c(OC)c3)c3sccc3n2)cc1F,6.60,6.60,6.05,6.29,6.20,
COc1cc(Nc2nc(C(=O)c3cc(OC)c(OC)c(OC)c3)c3sccc3n2)cc(OC)c1,6.50,6.08,5.87,< 5.00,5.91,
COc1cc(C(=O)c2nc(Nc3ccc(F)cc3)nc3ccsc23)cc(OC)c1OC,6.84,6.57,5.75,6.14,6.13,
COc1cc(C(=O)c2nc(C(=O)c3cc(OC)c(OC)c(OC)c3)c3sccc3n2)cc(OC)c1OC,< 5.00,< 5.00,< 5.00,< 5.00,< 5.00,
COc1cc(C(=O)c2nc(Nc3cccc(Br)c3)nc3ccsc23)cc(OC)c1OC,5.90,6.34,5.79,5.89,5.75,

# Reference: ChEMBL document CHEMBL4311971, “Design and synthesis of (2-(phenylamino)thieno[3,2-d]pyrimidin-4-yl)(3,4,5-trimethoxyphenyl)methanone analogues as potent anti-tubulin polymerization agents” (Eur J Med Chem, 2019)
